Experimental data from PMC3458735, “Design of a novel tryptophan-rich membrane-active antimicrobial peptide from the membrane-proximal region of the HIV glycoprotein, gp41” (Beilstein Journal of Organic Chemistry, 2012).
Where no end group is shown, it is not given here.

Key:
[1] = tested on: red blood cells from healthy volunteers; experiment: Hemolytic activity on red blood cells; assay type: cell-based, human; settings: for hemolytic concentration: peptide concentration at which red blood cells were lysed
Method: (§1) Minimum inhibitory concentrations (MIC) and minimum bactericidal concentrations (MBC) were determined for E. coli and S. aureus as described previously. Hemolytic activity was also determined by using red blood cells from healthy volunteers, as described previously.

E. coli = settings: for MBC E. coli: minimum bactericidal concentration; for MIC E. coli: minimum inhibitory concentration
Method: (§2) The antimicrobial activity for gp41w and its derivatives was determined against Gram-negative E. coli and Gram-positive S. aureus strains (Table 1).
as §1

S. aureus = settings: for MBC S. aureus: minimum bactericidal concentration; for MIC S. aureus: minimum inhibitory concentration
Method: as §2, §1

[2] = Acrylamide quenching of Trp fluorescence (Stern-Volmer constant); assay type: physicochemical; parameters: unit not given here; settings: acrylamide titration (aliquots of 4 M acrylamide), 25 °C, three separate trials
Method: Acrylamide quenching experiments were performed for the four peptides to examine the accessibility of the Trp fluorophores in the various membrane environments. If a Trp side chain inserts into the hydrophobic core of the bilayer, it becomes less accessible to the effects of the soluble acrylamide quencher. The quenching of Trp fluorescence is directly related to the concentration of quencher, so a titration with the neutral acrylamide allows for the calculation of the Stern–Volmer constant (Ksv), which quantitatively measures the accessibility of the Trp residues in various lipid environments.
Intrinsic tryptophan fluorescence of the peptides was measured on a Cary Eclipse Fluorimeter (Agilent Technologies, Victoria, Australia) equipped with a temperature control unit set at 25 °C. Emission spectra were recorded between 300 and 400 nm with an excitation wavelength of 295 nm. Excitation and emission slits were kept at 5 and 10 nm, respectively, for all the peptides except for gp41w-FKA, which has a single Trp residue, and for which both slit widths were maintained at 10 nm. The concentration of SDS and DPC in the fluorescence samples was 25 mM, while the lipid concentration in the LUV samples was 30 μM. Acrylamide titrations were performed to determine Ksv by adding five aliquots of a 4 M acrylamide solution to the sample and recording an emission spectra using the parameters described above. Ksv was calculated by using the formula F0/F = […], Where F0 is the initial fluorescence and F is the fluorescence intensity after the addition of soluble quencher (Q).

E. coli and S. aureus = experiment: Antimicrobial activity, covering both strains; assay type: cell-based; settings: for antimicrobial activity (in words): at the concentrations tested
Method: as §2, §1

[3] = Calcein leakage from LUVs; settings: 37 °C, triplicate; for calcein leakage from zwitterionic ePC:ePE LUVs: highest peptide:lipid ratio tested; for calcein leakage from zwitterionic ePC:ePE LUVs (in words): melittin as positive control
Method: All four peptides were tested for their ability to induce the release of the self-quenching fluorescent dye, calcein, from calcein-encapsulated LUVs.
Melittin (black), a known lytic peptide from honey-bee venom was used as a positive control. All experiments were carried out in triplicate at 37 °C.
Calcein leakage was performed according to established protocols. Melittin, the principal component of bee venom and a known lytic peptide, was used as a positive control. Calcein leakage was measured for LUVs made from lipid mixtures of ePC:ePG, ePE:ePG or ePC:ePE.

[4] = 4:4:1 CDCl3:methanol-d3:H2O, 1–2 mg in 500 μL; aggregates persisted at higher temperatures
Method: Consequently, we chose to use a cosolvent mixture consisting of four parts deuterated chloroform, four parts deuterated methanol and one part water [19–20].
NMR samples were prepared by dissolving 1–2 mg of lyophilized peptide powder in 500 μL of the miscible cosolvent solution, and then the samples were flame sealed in an NMR tube to avoid evaporation of the organic solvents. Two-dimensional NOESY, TOCSY and COSY spectra were collected at 298 K on a Bruker Avance 700 MHz spectrometer. Mixing times in the NOESY and TOCSY experiments were 100 ms and 120 ms, respectively. Spectra were acquired with 4096 × 600 data points in the F1 and F2 dimensions at a spectral width of 8992.806 Hz. Water suppression was achieved by using excitation sculpting [44].

[5] = earlier attempts at an NMR structure; cited from earlier work
Excerpt: The lack of antimicrobial activity may be related to the fact that the gp41w peptide appears to oligomerize in solution. […] In terms of the antimicrobial activity, gp41w oligomers may be too large to pass through the peptidoglycan layer surrounding Gram-positive bacteria. Additionally, they would have to disassociate into monomers before the ...

[6] = Tryptophan emission fluorescence in aqueous buffer; assay type: physicochemical; settings: 25 °C, excitation 295 nm, a blue-shifted maximum is read as oligomerization in solution
Method: Tryptophan emission fluorescence of all the gp41w derivatives was performed to examine the microenvironment surrounding the Trp side chains. It is evident that the behaviour of the gp41w peptide is very different from the other peptides. The wavelength of the maximum emission for gp41w occurs at 342 nm, while the other three peptides have maximum emission wavelengths at ~356 nm. The value of 356 nm is normal for an exposed Trp side chain in aqueous solution. […] A shift towards lower wavelengths is usually interpreted as the Trp residue residing in a more hydrophobic environment, which may be due to the gp41w peptides oligomerizing in solution.
Intrinsic tryptophan fluorescence of the peptides was measured on a Cary Eclipse Fluorimeter (Agilent Technologies, Victoria, Australia) equipped with a temperature control unit set at 25 °C. Emission spectra were recorded between 300 and 400 nm with an excitation wavelength of 295 nm. […] The concentration of SDS and DPC in the fluorescence samples was 25 mM, while the lipid concentration in the LUV samples was 30 μM. […] Ksv was calculated by using the formula F0/F = […], Where F0 is the initial fluorescence and F is the fluorescence intensity after the addition of soluble quencher (Q).

[7] = most potent peptide of Lee et al.; cited from earlier work
Excerpt: Other de novo strategies for generating AMPs have been reported in the literature. For instance, Lee et al. recently published a study wherein they synthesized short peptides (5-11 residues) composed of only three amino acids: Lys, Leu and Trp. Their results support the notion that the antimicrobial activity of a peptide is related to peptide amphipathicity and helicity as well as to the location of the Trp residues.

KFAKKFKWFAKAAFKFFKK-NH2 [gp41w-FKA]
hemolytic concentration [1]: 195 µg/mL
MBC E. coli (E. coli): 40 to 50 µg/mL
MIC E. coli (E. coli): 10 to 30 µg/mL
MBC S. aureus (S. aureus): 20 to 30 µg/mL
MIC S. aureus (S. aureus): <10 µg/mL
Ksv (Stern-Volmer constant) in buffer [2]: 17.9
antimicrobial activity (in words) (E. coli and S. aureus; E. coli and S. aureus): significant antimicrobial activity
concentrations of bacteriostatic and bactericidal effects (E. coli and S. aureus; range over MIC and MBC of both strains): 10 to 50 µg/mL
calcein leakage from zwitterionic ePC:ePE LUVs [3]: ~ 70%

KWAKKWKWFAKAAWKWYKK-NH2 [gp41w-KA]
hemolytic concentration [1]: 42 µg/mL
MBC E. coli (E. coli): >100 µg/mL
MIC E. coli (E. coli): >100 µg/mL
MBC S. aureus (S. aureus): >100 µg/mL
MIC S. aureus (S. aureus): >100 µg/mL
Ksv (Stern-Volmer constant) in buffer [2]: 16.4
antimicrobial activity (in words) (E. coli and S. aureus; E. coli and S. aureus): inactive
calcein leakage from zwitterionic ePC:ePE LUVs [3]: ~ 70%

KWARLWRWFRITRWLWYIK-NH2 [gp41w-4R]
Hemolysis EC50 ([1]; effective concentration for 50% hemolysis, red blood cells from healthy volunteers): 7 to 14 µg/mL
hemolytic concentration [1]: 7 µg/mL
MBC E. coli (E. coli): >100 µg/mL
MIC E. coli (E. coli): >100 µg/mL
MBC S. aureus (S. aureus): >100 µg/mL
MIC S. aureus (S. aureus): >100 µg/mL
Ksv (Stern-Volmer constant) in buffer [2]: 27.8
antimicrobial activity (in words) (E. coli and S. aureus; E. coli and S. aureus): inactive
calcein leakage from zwitterionic ePC:ePE LUVs (in words) [3]: significant leakage

KWASLWNWFNITNWLWYIK-NH2 [gp41w]
concentration below which hemolysis was not observed [1]: ≥ 500 µg/mL
hemolysis (in words) ([1]; peptide added to red blood cells): minimal hemolysis
MBC E. coli (E. coli): >100 µg/mL
MIC E. coli (E. coli): >100 µg/mL
MBC S. aureus (S. aureus): >100 µg/mL
MIC S. aureus (S. aureus): >100 µg/mL
solubility in the cosolvent mixture (in words) [4]: did not readily dissolve
Ksv (Stern-Volmer constant) in buffer [2]: 10.3
concentration below which no antimicrobial activity was observed (E. coli and S. aureus; E. coli and S. aureus): ≥ 100 µg/mL
antimicrobial activity (in words) (E. coli and S. aureus; E. coli and S. aureus): inactive
behaviour in aqueous solution or 40% TFE (in words) [5]: peptide aggregation or poor solubility
calcein leakage from zwitterionic ePC:ePE LUVs (in words) [3]: caused leakage, but not to the same extent
wavelength of the maximum Trp emission in aqueous buffer [6]: 342 nm

LKWLLKWLL-NH2
hemolytic activity (in words) [7]: significant hemolytic activity
